Reference: patent US6812346B2, “Substituted pyridines as selective cyclooxygenase-2 inhibitors” (Merck Frosst Canada and Co., priority 1996, dated 2004)
Like-named read-outs stand apart in the source and are kept apart here.

Experiments:
[1] = tested on: carrageenan-induced rat paw edema; test: Rat paw edema assay; assay type: in vivo; settings: male Sprague-Dawley rats, po, 1 hr before carrageenan, paw volume 3 hr later; for ED50: Rattus norvegicus
Method: Male Sprague-Dawley rats (150-200 g) are fasted overnight and are given, po, either vehicle (1% methocel or 5% Tween 80) or a test compound. One hr later, a line is drawn using a permanent marker at the level above the ankle in one hind paw to define the area of the paw to be monitored. The paw volume (V0) is measured using a plethysmometer (Ugo-Basile, Italy) based on the principle of water displacement. The animals are then injected subplantarly with 50 μl of 1% carrageenan solution in saline (FMC Corp, Maine) into the paw using an insulin syringe with a 25-gauge needle (i.e. 500 μg carrageenan per paw). Three hr later, the paw volume (V3) is measured and the increases in paw volume (V3-V0) are calculated. The animals are sacrificed by CO2 asphyxiation and the absence or presence of stomach lesions scored. Data is compared with the vehicle-control values and percent inhibition calculated. All treatment groups are coded to eliminate observer bias.

[2] = target: T1, COX-1 (Homo sapiens, UniProt P23219); test: Cox-1 U937 (COX-1 activity from U937 cell microsomes); assay type: biochemical; settings: U937, PGE2 synthesis in presence of AA
T1 construct: Assay of COX-1 Activity from U937 Cell Microsomes; endogenous in cells; host or cells: U937 cells, 100,000 x g microsomal fraction
T1 sequence (P23219 24-599): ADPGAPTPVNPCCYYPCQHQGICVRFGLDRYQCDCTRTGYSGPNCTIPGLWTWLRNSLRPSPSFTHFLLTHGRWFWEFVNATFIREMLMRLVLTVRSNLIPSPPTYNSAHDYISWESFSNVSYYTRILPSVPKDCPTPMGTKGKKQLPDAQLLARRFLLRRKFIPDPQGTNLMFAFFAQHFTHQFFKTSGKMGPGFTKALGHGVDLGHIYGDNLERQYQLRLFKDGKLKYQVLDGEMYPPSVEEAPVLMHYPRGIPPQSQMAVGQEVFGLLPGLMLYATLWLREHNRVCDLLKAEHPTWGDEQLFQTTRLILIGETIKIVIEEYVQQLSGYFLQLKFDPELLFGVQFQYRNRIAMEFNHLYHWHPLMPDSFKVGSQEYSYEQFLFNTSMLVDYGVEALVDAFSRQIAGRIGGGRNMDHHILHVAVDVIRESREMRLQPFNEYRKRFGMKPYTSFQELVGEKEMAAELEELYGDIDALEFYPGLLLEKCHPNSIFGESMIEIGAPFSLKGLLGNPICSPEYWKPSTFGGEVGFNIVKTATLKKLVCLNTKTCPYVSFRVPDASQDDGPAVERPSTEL
Method: Assay of COX-1 Activity from U937 Cell Microsomes
U 937 cells are pelleted by centrifugation at 500×g for 5 min and washed once with phosphate-buffered saline and repelleted. Cells are resuspended in homogenization buffer consisting of 0.1 M Tris-HCl, pH 7.4, 10 mM EDTA, 2 μg/ml leupeptin, 2 μg/ml soybean trypsin inhibitor, 2 μg/ml aprotinin and 1 mM phenyl methyl sulfonyl fluoride. The cell suspension is sonicated 4 times for 10 sec and is centrifuged at 10,000×g for 10 min at 4° C. The supernatant is centrifuged at 100,000×g for 1 hr at 4° C. The 100,000×g microsomal pellet is resuspended in 0.1 M Tris-HCl, pH 7.4, 10 mM EDTA to approximately 7 mg protein/ml and stored at −80° C.
Assays are performed in duplicate in a final volume of 250 μl. Initially, 5 μl of DMSO vehicle or drug in DMSO are added to 20 μl of 0.1 M Tris-HCl buffer, pH 7.4 containing 10 mM EDTA in wells of a 96-deepwell polypropylene titre plate. 200 μl of the microsomal preparation are then added and pre-incubated for 15 min at room temperature before addition of 25 μl of […] in […] Tris-HCl and 10 mM EDTA, pH 7.4. Samples are incubated for 40 min at room temperature and the reaction is stopped by the addition of 25 μl of 1 N HCl. Samples are neutralized with 25 μl of 1 N NaOH prior to quantitation of PGE2 content by radioimmunoassay (Dupont-NEN or Amersham assay kits). Cyclooxygenase activity is defined as the difference between PGE2 levels in samples incubated in the presence of arachidonic acid and ethanol vehicle.

[3] = target: T2, COX-2 (Homo sapiens, UniProt P35354); test: Human whole blood assay, COX-2 (LPS-induced PGE2 production); assay type: cell-based
T2 sequence (P35354 18-604): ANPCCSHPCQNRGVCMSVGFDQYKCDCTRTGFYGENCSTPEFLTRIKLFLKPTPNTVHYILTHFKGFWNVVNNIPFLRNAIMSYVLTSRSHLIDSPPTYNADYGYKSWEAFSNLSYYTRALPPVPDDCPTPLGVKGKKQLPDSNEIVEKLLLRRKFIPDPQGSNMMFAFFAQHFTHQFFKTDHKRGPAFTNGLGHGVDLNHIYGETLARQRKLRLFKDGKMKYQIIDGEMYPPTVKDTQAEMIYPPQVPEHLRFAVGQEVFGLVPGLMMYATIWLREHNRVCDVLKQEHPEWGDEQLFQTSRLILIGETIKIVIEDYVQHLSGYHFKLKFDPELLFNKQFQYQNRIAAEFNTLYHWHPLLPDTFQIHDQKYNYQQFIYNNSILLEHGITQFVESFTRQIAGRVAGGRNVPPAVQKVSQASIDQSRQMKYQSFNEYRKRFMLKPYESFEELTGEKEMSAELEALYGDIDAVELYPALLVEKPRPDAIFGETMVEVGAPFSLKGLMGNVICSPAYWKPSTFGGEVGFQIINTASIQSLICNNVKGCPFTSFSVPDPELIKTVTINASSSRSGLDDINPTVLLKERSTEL
Text: As well, platelets in whole blood contain a large amount of the COX-1 enzyme. Immediately following blood clotting, platelets are activated through a thrombin-mediated mechanism. This reaction results in the production of thromboxane B2 (TxB2) via activation of COX-1. Thus, the effect of test compounds on TxB2 levels following blood clotting can be examined and used as an index for COX-1 activity. Therefore, the degree of selectivity by the test compound can be determined by measuring the levels of PGE2 after LPS induction (COX-2) and TxB2 following blood clotting (COX-1) in the same assay.
Step A: COX-2 (LPS-induced PGE2 Production)
Fresh blood is collected in heparinized tubes by venipuncture from both male and female volunteers. The subjects have no apparent inflammatory conditions and have not taken any NSAIDs for at least 7 days prior to blood collection. Plasma is immediately obtained from a 2 mL blood aliquot to use as blank (basal levels of PGE2).

[4] = human whole blood, LPS-induced PGE2 production, 24 hours at 37° C., read-out: Cox-2 Whole Blood (IC50)
[5] = Cox-1 U937 IC50 over Cox-2 whole blood IC50

SMILES	ED50 [1] [mg/kg]	IC50 [2] [µM]	IC50 [3, 4] [µM]	Selectivity Ratio [3, 5]	further results
CS(=O)(=O)c1ccc(-c2cccnc2-c2ccccc2)cc1 [Aa, reference compound]	> 10	–	–	–	–
CS(=O)(=O)c1ccc(-c2cccnc2-c2ccc(F)cc2)cc1 [Ab, reference compound]	–	2.2	4.9	–	–
CS(=O)(=O)c1ccc(-c2cc(C(F)(F)F)cnc2-c2ccccc2)cc1 [Example 1, 3-(4-Methylsulfonyl)phenyl-2-phenyl-5-trifluoromethylpyridine]	5.4	1.5	0.3	4.4	–
CS(=O)(=O)c1ccc(-c2cc(C(F)(F)F)cnc2-c2ccc(Cl)cc2)cc1 [Example 3, 2-(4-Chlorophenyl)-3-(4-methylsulfonyl)phenyl-5-trifluoromethylpyridine]	–	1.8	0.9	2	–
CS(=O)(=O)c1ccc(-c2cc(C(F)(F)F)cnc2-c2ccc(F)cc2)cc1 [Example 4, 2-(4-Fluorophenyl)-3-(4-methylsulfonyl)phenyl-5-trifluoromethylpyridine]	–	1	0.3	3.3	–
CS(=O)(=O)c1ccc(-c2cc(C(F)(F)F)cnc2-c2cccnc2)cc1 [Example 7, 3-(4-Methylsulfonyl)phenyl-2-(3-pyridinyl)-5-trifluoromethylpyridine]	–	5	–	–	–
Cc1cnc(-c2ccccc2)c(-c2ccc(S(C)(=O)=O)cc2)c1 [Example 13, 5-Methyl-3-(4-methylsulfonyl)phenyl-2-phenylpyridine]	–	3	0.5	6	–
Cc1cnc(-c2ccc(Cl)cc2)c(-c2ccc(S(C)(=O)=O)cc2)c1 [Example 14, 2-(4-Chlorophenyl)-5-methyl-3-(4-methylsulfonyl)phenylpyridine]	–	1.4	0.7	2	–
CS(=O)(=O)c1ccc(-c2cc(Cl)cnc2-c2cccnc2)cc1 [Example 21, 5-Chloro-3-(4-methylsulfonyl)phenyl-2-(3-pyridinyl)pyridine]	2.3	16	1	16	–
Cc1ccc(-c2ncc(Cl)cc2-c2ccc(S(C)(=O)=O)cc2)cn1 [Example 23, 5-Chloro-3-(4-methylsulfonyl)phenyl-2-(2-methyl-5-pyridinyl)pyridine]	–	> 10	–	–	–
CS(=O)(=O)c1ccc(-c2cc(Br)cnc2-c2cccnc2)cc1 [Example 32]	0.9	> 10	1.2	–	–
CS(=O)(=O)c1ccc(-c2cc(C#N)cnc2-c2ccc(Cl)cc2)cc1 [Example 45, 5-Cyano-2-(4-chlorophenyl)-3-(4-methylsulfonyl)phenylpyridine]	3	> 10	2.2	>4.5	–
CS(=O)(=O)O.CS(=O)(=O)c1ccc(-c2cc(Cl)cnc2-c2cccnc2)cc1 [Example 46, 5-Chloro-3-(4-methylsulfonyl)phenyl-2-(3-pyridyl)pyridine hydromethanesulfonate]	–	–	–	–	Rat Paw Edema (ED50, mg/kg) [1]: 3.3 mg/kg
CS(=O)(=O)c1ccc(-c2cc(Cl)cnc2-c2cccnc2)cc1.Cl [Example 47, 5-Chloro-3-(4-methylsulfonyl)phenyl-2-(3-pyridyl)pyridine hydrochloride]	–	–	–	–	Rat Paw Edema (ED50, mg/kg) [1]: 2.4 mg/kg
Cc1ccc(-c2ncc(Cl)cc2-c2ccc(S(C)(=O)=O)cc2)cn1.Cl [Example 59, 5-Chloro-3-(4-methylsulfonyl)phenyl-2-(2-methyl-5-pyridinyl)pyridine Hydrochloride]	–	–	–	–	Rat Paw Edema (ED50, mg/kg) [1]: 0.8 mg/kg
CCc1ccc(-c2ncc(Cl)cc2-c2ccc(S(C)(=O)=O)cc2)cn1 [Example 71, 5-Chloro-3-(4-methylsulfonyl)phenyl-2-(2-ethyl-5-pyridinyl)pyridine]	1.6	> 10	–	–	–
CS(=O)(=O)c1ccc(-c2cc(Cl)cnc2-c2ccc(C3CC3)nc2)cc1 [Example 73, 5-Chloro-3-(4-methylsulfonyl)phenyl-2-(2-cyclopropyl-5-pyridinyl)pyridine]	2	7	–	–	IC50 [3]: 1.8 µM; Selectivity Ratio [3]: 3.8
